This note sets out measurements from patent US8895585B2, “Nicotinamide derivative or salt thereof” (FUJIFILM Corporation, priority 2010, dated 2014).

Read-outs that look alike come from different tables or passages of the source. Bounds are passed on as bounds.

Assay [1] concerns the target T1, glutathione S-transferase (GST)-fused full-length human Syk protein (Homo sapiens, UniProt P43405).
T1 construct: (GST)-fused full-length human Syk protein; GST (glutathione S-transferase); purchased Carna Biosciences
The assay is described as follows: Syk enzyme assay. The class given is biochemical. The method, boiled down:
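Baculovirus-expressed enzyme (1.2 ng) was preincubated with compound in HEPES pH 7.0/MgCl2/DTT buffer, 2 min shaking then 13 min at room temperature. Biotin-EDPDYEWPSA-NH2 (0.4 μM final) and ATP (27 μM final) were added for 40 min at room temperature. EDTA stop, streptavidin-XL/PT66-K TR-FRET at 615/665 nm gave IC50.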

The next assay relates to THP-1 cells. In words: TNFα generation assay. Format: cell-based, human. The method, boiled down: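 Secreted TNFα in supernatant quantified by ELISA or AlphaLISA after 7 h culture on human IgG-coated wells (10 μg/ml coating). Cells were IFN-γ-differentiated THP-1 (10 ng/ml, 2 days), exposed to compound for 30 min at room temperature before plating.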
Where [2] appears, read: Syk enzyme assay, Test Example 1, read-out: IC50 of Syk-inhibitory activity.
The mark [3] stands for this setting: Homo sapiens, THP-1, THP-1 cells, Table 22, read-out: IC50 in TNFα generation assay.

For `NC(=O)c1cc(F)c(N[C@@H]2CCCC[C@@H]2N)nc1Nc1cncc(-c2cnn(Cc3ccccc3)c2)c1` (relative stereo) [Example 004-075, 6-(cis-2-aminocyclohexylamino)-2-((5-(1-benzyl-1H-pyrazol-4-yl)pyridin-3-yl)amino)-5-fluoronicotinamide], the IC50 in assay [1] (setting [2]) was below 10 nM; with THP-1 cells (setting [3]) it was 130 to 200 nM.

`CCn1nc(F)c2cc(Nc3nc(NC4CCCCC4N)c(F)cc3C(N)=O)ccc21` (centres unmarked) [Example 002-197]: the IC50 was below 10 nM in assay [1] (setting [2]) and 130 to 200 nM in the assay with THP-1 cells (setting [3]).

Consider `NC(=O)c1cc(F)c(NC2CCCCC2N)nc1Nc1cncc(-c2ccc([N+](=O)[O-])cc2)c1` (centres unmarked) [Example 002-172], for which the IC50 in assay [1] (setting [2]) fell in the range of 10 to 50 nM; in the assay with THP-1 cells (setting [3]), 130 to 200 nM.

As for `COc1cc(Nc2nc(N[C@@H]3CCCC[C@@H]3N)c(F)cc2C(N)=O)c2cc[nH]c2n1` (relative stereo) [Example 004-065, 6-(cis-2-aminocyclohexylamino)-5-fluoro-2-((6-methoxy-1H-pyrrolo[2,3-b]pyridin-4-yl)-amino)nicotinamide], the values for the IC50 (in assay [1] (setting [2]); with THP-1 cells (setting [3])) were below 10 nM and 65 to 130 nM, respectively.

`Cc1nn(CC(F)F)c2ccc(Nc3nc(N[C@H](CC4CC4)[C@H](C)N)c(F)cc3C(N)=O)cc12` [Example 006-445, 6-(((2R,3S)-3-amino-1-cyclopropylbutan-2-yl)amino)-2-((1-(2,2-difluoroethyl)-3-methyl-1H-indazol-5-yl)amino)-5-fluoronicotinamide]: the values for the IC50 (in assay [1] (setting [2]); with THP-1 cells (setting [3])) were below 10 nM and 65 to 130 nM, respectively.

On to `Cc1cc(Nc2nc(N[C@@H]3CCCC[C@@H]3N)c(F)cc2C(N)=O)ccn1` [Example 004-018], for which the IC50 in assay [1] (setting [2]) was in the range of 10 to 50 nM; in the assay with THP-1 cells (setting [3]) it was 65 to 130 nM.

On to `COc1ncc(Nc2nc(N[C@@H]3CCCC[C@@H]3N)c(F)cc2C(N)=O)cc1F` [Example 006-484, 6-(((1R,2S)-2-aminocyclohexyl)amino)-5-fluoro-2-((5-fluoro-6-methoxypyridin-3-yl)amino)nicotinamide], for which the IC50 lay within 10 to 50 nM in assay [1] (setting [2]) and 65 to 130 nM in the assay with THP-1 cells (setting [3]).

For `CCN(CC)CCn1ccc2c(Nc3nc(N[C@@H]4CCCC[C@@H]4N)c(F)cc3C(N)=O)ccnc21` [Example 004-028], the IC50 in assay [1] (setting [2]) was below 10 nM; in the assay on THP-1 cells (setting [3]), 65 to 130 nM.

For the compound `CC(C)c1nn(C)c2ccc(Nc3nc(N[C@@H]4CCCC[C@@H]4N)c(F)cc3C(N)=O)cc12` [Example 006-461, 6-(((1R,2S)-2-aminocyclohexyl)amino)-5-fluoro-2-((3-isopropyl-1-methyl-1H-indazol-5-yl)amino)nicotinamide], the IC50 in assay [1] (setting [2]) was below 10 nM; in the assay with THP-1 cells (setting [3]) it was 65 to 130 nM.

In the case of `CCn1ncc2cc(Nc3nc(N[C@H](C4CC4)[C@H](C)N)c(F)cc3C(N)=O)ccc21` [Example 006-471, 6-(((1R,2S)-2-amino-1-cyclopropylpropyl)amino)-2-((1-ethyl-1H-indazol-5-yl)amino)-5-fluoronicotinamide], the IC50 in assay [1] (setting [2]) is below 10 nM; in the assay on THP-1 cells (setting [3]), below 65 nM.

For `C[C@H](N)[C@@H](C)Nc1nc(Nc2cccc3ncccc23)c(C(N)=O)cc1F` [Example 006-110], the IC50 was below 10 nM in assay [1] (setting [2]) and 65 to 130 nM in the assay on THP-1 cells (THP-1 cells, Table 22, read-out: IC50 in TNFα generation assay).

As for `NC(=O)c1cc(F)c(N[C@@H]2CCCC[C@@H]2N)nc1Nc1cnc2ncccc2c1` (relative stereo) [Example 10-2, 6-(cis-2-aminocyclohexylamino)-5-fluoro-2-((1,8-naphthyridin-3-yl)amino)nicotinamide], the IC50 in assay [1] (read-out: Syk-inhibitory activity (IC50)) is at most 1000 nM; in the assay with THP-1 cells (Homo sapiens, THP-1, 7 h, IFN-γ-differentiated THP-1 cells on human IgG-coated plate, cultured 7 hours, read-out: TNFα generation inhibitory activity (IC50)), at most 200 nM.

With `CCc1nn(CC(F)F)c2ccc(Nc3nc(N[C@@H]4CCCC[C@@H]4N)c(F)cc3C(N)=O)cc12` [Example 006-455, 6-(((1R,2S)-2-aminocyclohexyl)amino)-2-((1-(2,2-difluoroethyl)-3-ethyl-1H-indazol-5-yl)amino)-5-fluoronicotinamide], the IC50 in assay [1] (setting [2]) is below 10 nM; in the assay on THP-1 cells (setting [3]), 65 to 130 nM.

For the compound `CCC[C@@H](Nc1nc(Nc2ccc3c(cnn3CCOC)c2)c(C(N)=O)cc1F)[C@H](C)N` [Example 006-314, 6-(((2S,3R)-2-aminohexan-3-yl)amino)-5-fluoro-2-((1-(2-methoxyethyl)-1H-indazol-5-yl)amino)nicotinamide], the IC50 in assay [1] (setting [2]) is below 10 nM; in the assay on THP-1 cells (setting [3]), below 65 nM.

Consider `CC[C@H](N)[C@@H](C)Nc1nc(Nc2ccc3c(cnn3CCOC)c2)c(C(N)=O)cc1F` [Example 006-363, 6-(((2R,3S)-3-aminopentan-2-yl)amino)-5-fluoro-2-((1-(2-methoxyethyl)-1H-indazol-5-yl)amino)nicotinamide], for which the values for the IC50 (in assay [1] (setting [2]); with THP-1 cells (setting [3])) were below 10 nM and 65 to 130 nM, respectively.

As for `CC[C@H](N)[C@@H](CC)Nc1nc(Nc2ccc3ncccc3c2)c(C(N)=O)cc1F` [Example 006-199, 6-(((3R,4S)-4-aminohexan-3-yl)amino)-5-fluoro-2-((quinolin-6-yl)amino)nicotinamide], the IC50 in assay [1] (setting [2]) was below 10 nM; with THP-1 cells (setting [3]) it was 65 to 130 nM.

With `CC[C@@H](Nc1nc(Nc2ccc3c(cnn3CCOC)c2)c(C(N)=O)cc1F)[C@H](C)N` [Example 006-313, 6-(((2S,3R)-2-aminopentan-3-yl)amino)-5-fluoro-2-((1-(2-methoxyethyl)-1H-indazol-5-yl)amino)nicotinamide], the IC50 is below 10 nM in assay [1] (setting [2]) and 65 to 130 nM in the assay on THP-1 cells (setting [3]).

For the compound `NC(=O)c1cc(F)c(N[C@@H]2CCCC[C@@H]2N)nc1Nc1cnc2ccncc2c1` [Example 004-003], the IC50 in assay [1] (setting [2]) was 10 to 50 nM; with THP-1 cells (setting [3]) it was below 65 nM.

Turning to `CCC[C@@H](Nc1nc(Nc2ccc3nc(C)cnc3c2)c(C(N)=O)cc1F)[C@H](C)N` [Example 006-245, 6-(((2S,3R)-2-aminohexan-3-yl)amino)-5-fluoro-2-((2-methylquinoxalin-6-yl)amino)nicotinamide], the IC50 in assay [1] (setting [2]) is below 10 nM; with THP-1 cells (setting [3]), 65 to 130 nM.

Take `Cc1nn(CCF)c2cc(Nc3nc(N[C@H](CC4CC4)[C@H](C)N)c(F)cc3C(N)=O)ccc12` [Example 006-488, 6-(((2R,3S)-3-amino-1-cyclopropylbutan-2-yl)amino)-5-fluoro-2-((1-(2-fluoroethyl)-3-methyl-1H-indazol-6-yl)amino)nicotinamide]: the figures for the IC50 (in assay [1] (setting [2]); in the assay with THP-1 cells (setting [3])) were below 10 nM and 65 to 130 nM, respectively.

As to `NC(=O)c1cc(F)c(N[C@@H]2CCCC[C@@H]2N)nc1Nc1ccc2nc(-c3ccccc3)cn2c1` [Example 004-014], the IC50 in assay [1] (setting [2]) was below 10 nM; in the assay on THP-1 cells (setting [3]), 130 to 200 nM.

Regarding `NC(=O)c1cc(F)c(N[C@@H]2CCCC[C@@H]2N)nc1Nc1cnc2c(ccn2CCN2CCOCC2)c1` [Example 004-024], the results for the IC50 (in assay [1] (setting [2]); in the assay with THP-1 cells (setting [3])) were 50 to 100 nM and 130 to 200 nM, respectively.

Take `Cc1cncc(Nc2nc(NC3CCCCC3N)c(Br)cc2C(N)=O)c1` (centres unmarked) [Example 035-007]: the IC50 in assay [1] (setting [2]) is below 10 nM; with THP-1 cells (setting [3]), 65 to 130 nM.

In the case of `NC(=O)c1cc(F)c(N[C@H](Cc2ccccc2)C(N)=O)nc1Nc1ccnc2c1ccn2CC1CC1` [Example 004-046], the IC50 in assay [1] (setting [2]) was below 10 nM; in the assay with THP-1 cells (setting [3]), 130 to 200 nM.

In the case of `CCC[C@@H](Nc1nc(Nc2ccc3scnc3c2)c(C(N)=O)cc1F)[C@H](C)N` [Example 006-308, 6-(((2S,3R)-2-aminohexan-3-yl)amino)-2-(benzo[d]thiazol-5-ylamino)-5-fluoronicotinamide], the IC50 is below 10 nM in assay [1] (setting [2]) and 65 to 130 nM with THP-1 cells (setting [3]).

As to `COc1cc(Nc2nc(NC[C@H](C)N)c(F)cc2C(N)=O)ccn1` [Example 006-096, (S)-6-((2-aminopropyl)amino)-5-fluoro-2-((2-methoxypyridin-4-yl)amino)nicotinamide], the IC50 in assay [1] (setting [2]) was 10 to 50 nM; in the assay with THP-1 cells (setting [3]) it was below 65 nM.

Turning to `CC[C@H](N)[C@@H](CC)Nc1nc(Nc2ccc3c(cnn3C)c2)c(C(N)=O)cc1F` [Example 006-364, 6-(((3R,4S)-4-aminohexan-3-yl)amino)-5-fluoro-2-((1-methyl-1H-indazol-5-yl)amino)nicotinamide], the IC50 is below 10 nM in assay [1] (setting [2]) and 65 to 130 nM with THP-1 cells (setting [3]).

For the compound `CCC[C@@H](Nc1nc(Nc2cncc3ccccc23)c(C(N)=O)cc1F)[C@H](C)N` [Example 006-241, 6-(((2S,3R)-2-aminohexan-3-yl)amino)-5-fluoro-2-((isoquinolin-4-yl)amino)nicotinamide], the IC50 in assay [1] (setting [2]) is below 10 nM; in the assay with THP-1 cells (setting [3]), 65 to 130 nM.

With `CCn1nc(C)c2cc(Nc3nc(N[C@H](CC4CC4)[C@H](C)N)c(F)cc3C(N)=O)ccc21` [Example 006-443, 6-(((2R,3S)-3-amino-1-cyclopropylbutan-2-yl)amino)-2-((1-ethyl-3-methyl-1H-indazol-5-yl)amino)-5-fluoronicotinamide], the IC50 in assay [1] (setting [2]) was below 10 nM; in the assay on THP-1 cells (setting [3]) it was 65 to 130 nM.

Take `C[C@H](N)[C@H](Nc1nc(Nc2ccc3c(cnn3C)c2)c(C(N)=O)cc1F)C1CC1` [Example 006-369, 6-(((1R,2S)-2-amino-1-cyclopropylpropyl)amino)-5-fluoro-2-((1-methyl-1H-indazol-5-yl)amino)nicotinamide]: the IC50 in assay [1] (setting [2]) was below 10 nM; with THP-1 cells (setting [3]), below 65 nM.

`NC(=O)c1cc(F)c(N[C@@H]2CCCC[C@@H]2N)nc1Nc1cncc(-n2cccn2)c1` (relative stereo) [Example 006-129, 2-((5-(1H-pyrazol-1-yl)pyridin-3-yl)amino)-6-((cis-2-aminocyclohexyl)amino)-5-fluoronicotinamide]: the IC50 in assay [1] (setting [2]) is below 10 nM; in the assay with THP-1 cells (setting [3]) it was below 65 nM.
